Columns and labels:
RON = RON (Homo sapiens, UniProt Q04912); settings: from the cited IC50 values; cited from earlier work
PyMT-MSP tumor cells = assay: Intratibial PyMT-MSP tumor-induced osteolysis; assay type: in vivo, mice
Excerpt: (§1) All procedures involving mice and experimental protocols were approved by the Institutional Animal Care and Use Committee (IACUC) of the University of Utah. The RonTK−/− mice which reside on the FVB background, were crossed with NOD.SCID mice for an immune-compromised mouse model. As a control, wild-type FVB mice were also crossed with NOD.SCID mice. The STK−/− mice, which are on a C57BL/6 background, were compared to wild-type C57BL/6 mice as controls. Mice for all experiments were 6 to 8 weeks of age. For intratibial injections, 1×10^5 (PyMTor DU4475) or 3×10^5 (MDA-MB-231) tumor cells were resuspended in 10 μL matrigel and injected into the right tibia of anesthetized female FVB (PyMT) or NOD.SCID mice carrying various alleles of RON. Osteolysis was assessed by X-ray radiography. Dissected hindlimbs from mice sacrificed at the final time point in each experiment were placed in the Kodak In-vivo Multispectral Imaging System FX and exposed to X-ray radiography at 35 kV for 100 sec. Excess tumor tissue was removed from the bones prior to X-ray. Osteolytic lesions were quantified using Image J software (NCBI). All images were compared to the contralateral leg as an internal control.
Hindlimb bones were excised from mice at the time of sacrifice and bones were fixed in 10% neutral-buffered formalin, decalcified in Formical-2000 (Decal Corporation, Tallman, N.Y.) for 8 days and embedded in paraffin for hematoxylin and eosin (H & E) or immunohistochemical staining. Osteoclast number was assessed as TRAP^+ multinucleated cells containing 4 or more nuclei and reported as TRAP^+ cells per field. Three sections per mouse and 5 fields per section were used for quantification with fields representing the entire length of the tibia. Tumor proliferation rate was reported as the number of cells which were positive for phospho-H3 staining compared to the number of unstained cells per field expressed as a percent. Three sections per mouse and 5 fields per section were used for quantification with analysis being restricted to within the bone marrow cavity. Immunohistochemical analysis was performed with heat-induced antigen retrieval in sodium-citrate buffer (Dako, Denmark). Primary antibodies used were anti-TRAP at 1:50 (Santa Cruz, sc-30833, Dallas, Tex.), anti-Ki67 at 1:100 (Santa Cruz, sc-12202S, Dallas, Tex.), anti-phosphoH3 at 1:100 (Cell Signaling, #9701, Beverly, Mass.), anti-NFATc1 at 1:50 (Santa Cruz, sc-13033, Dallas, Tex.), and anti-RON at 1:250 (Santa Cruz, sc-322, Dallas, Tex.). Bones from mice lacking RON were used as a negative control. Biotinylated secondary antibody was used with the EnVision^+ system HRP kit (Dako, Denmark) and nuclei counterstained with hematoxylin.
For in vivo experiments, the OSI-296 inhibitor was dissolved in 40% Trappsol with 0.01 M HCl, and mice were treated at a concentration of 200 mg/kg daily by oral gavage. Treatment began either 3 days after tumor cell injection for prophylactic experiments, or 3 weeks after tumor cell injection for therapeutic experiments. ASLAN002 was dissolved in 70% PEG400 with 1×PBS and mice were treated at a concentration of 50 mg/kg daily by oral gavage. muRANK-Fc was given at a concentration of 10 mg/kg every three days by intra-peritoneal injection. For the osteoporosis study, mice were treated beginning on the day after ovary removal. The treatment regimen for OSI-296 was 200 mg/kg every other day by oral gavage. ASLAN002 was administered at 50 mg/kg every other day by oral gavage. Treatment continued until the time of sacrifice at 28 days.

[1] = In vivo bone labeling and histomorphometry; set-up: species or system mice; settings: normal, uninjected animals
Method: To label bones, mice were intraperitoneally injected with 20 mg/kg of calcein (Sigma-Aldrich, St. Louis, Mo.) or 30 mg/kg of Alizarin Complexone (Sigma-Aldrich, St. Louis, Mo.) in a 2% sodium bicarbonate solution. Mice 6 to 8 months of age were labeled 8 days and 2 days prior to euthanasia, respectively. Tibia were fixed in 70% ethanol, embedded in methylmethacrylate and sectioned. Bone histomorphometry on H and E sections and bone labeled sections were performed as previously described (Parfitt, et al. Report of the ASBMR Histomorphometry Nomenclature Committee. J. Bone Miner. Res. 1987, 2, 595-610). Analysis of bone volume (BV/TV), and trabecular spacing (Tb. Sp.) were performed on the metaphyseal region of tibia sections stained with H and E. Bone formation rate (BFR) per bone surface (BS) and mineral apposition rate (MAR) of trabeculae were calculated within the metaphyseal region of the tibia. For all histomorphometry, three sections per mouse with 4 to 5 mice per group were analyzed. Analysis was performed using Bioquant Osteo software (Bioquant Image Analysis Corporation, Nashville, Tenn.).

ERK = assay: Western blot of osteoclast lysates, ERK; assay type: cell-based, mice; settings: osteoclasts
Method: (§2) Cells were serum starved (0.5% FBS) for 3 hours prior to lysate collection. Inhibitors were added 1 hour prior to lysis and MSP was added 15 min prior to lysis when indicated. Cells were washed with 1×PBS and harvested in lysis buffer (25 mM Tris-HCl, pH 7.5, 0.42 M NaCl, 1.5 mM MgCl2, 0.5 mM EDTA, 1 mM DTT, 25% sucrose, and 0.1% Triton X-100) plus 100× protease arrest (Bioscience, Bozeman, Mont.) and 100× orthovanadate. Primary antibodies used for immunoblotting include: anti-MSP (Santa Cruz, sc-6090, Dallas, Tex.) at a 1:250 dilution, anti-pan Akt (Cell Signaling, #4691S, Beverly, Mass.) at a 1:1000 dilution, anti-pan Erk (Cell Signaling, #4695, Beverly, Mass.) at a 1:1000 dilution, anti-phospho Akt (Cell Signaling, #9271 L, Beverly, Mass.) at a 1:500 dilution, anti-phospho Erk (Cell Signaling, #4370S, Beverly, Mass.) at a 1:500 dilution, anti-Src (Cell Signaling, #2110, Beverly, Mass.) at a 1:500 dilution, and anti-phospho Src (Y416) (Cell Signaling, #2113, Beverly, Mass.) at a 1:500 dilution. The secondary antibodies used were HRP-conjugated anti-goat IgG (Santa Cruz, Dallas, Tex.) and anti-rabbit IgG (Santa Cruz, Dallas, Tex.). Chemiluminescent signals were detected using Immun-Star HRP (BioRad, Hercules, Calif.).

[2] = system: DU4475 breast cancer cells; assay: Intratibial DU4475 tumor-induced osteolysis; assay type: in vivo, mice; settings: treatment began 3 days post tumor cell injection
Excerpt: as §1
For in vivo experiments, the OSI-296 inhibitor was dissolved in 40% Trappsol with 0.01 M HCl, and mice were treated at a concentration of 200 mg/kg daily by oral gavage. […]

[3] = Ovariectomy-induced bone loss (osteoporosis study); assay type: in vivo; settings: WT OVX mice, treatment from 1 day post-ovariectomy, analysis at 28 days
Excerpt: Representative samples were imaged by micro-computed tomography (μCT, Skyscan) with volume rendering snapshots of the tibia. For the osteoporosis study, representative samples were imaged and presented as volume rendering snapshots of the axial view of the tibial metaphysis region. For bone mineral density (BMD) measurements, the right tibia was removed and fixed in 10% NBF overnight. The tibia were then scanned by dual-energy X-ray absorptiometry (DXA) using a Norland pDEXA densitometer (Norland Medical Systems, White Plains, N.Y.). A region including the primary and secondary spongiosa was used to determine the BMD of the tibia. […] For the osteoporosis study, mice were treated beginning on the day after ovary removal. The treatment regimen for OSI-296 was 200 mg/kg every other day by oral gavage. ASLAN002 was administered at 50 mg/kg every other day by oral gavage. Treatment continued until the time of sacrifice at 28 days. […] To investigate the role of the MSP/RON pathway in bone loss due to post-menopausal osteoporosis, ovariectomies were performed in WT and RonTK−/− mice and bone loss was analyzed by dual-energy X-ray absorptiometry (DXA) and bone histomorphometry 28 days later. […] WT OVX mice were treated with ASLAN002 beginning 1 day post-ovariectomy. Mice were sacrificed 28 days post-ovariectomy for analysis.

AKT = assay: Western blot of osteoclast lysates, phospho-AKT; assay type: cell-based, mice; settings: osteoclasts
Method: as §2

Sequence of RON (Q04912 25-1400): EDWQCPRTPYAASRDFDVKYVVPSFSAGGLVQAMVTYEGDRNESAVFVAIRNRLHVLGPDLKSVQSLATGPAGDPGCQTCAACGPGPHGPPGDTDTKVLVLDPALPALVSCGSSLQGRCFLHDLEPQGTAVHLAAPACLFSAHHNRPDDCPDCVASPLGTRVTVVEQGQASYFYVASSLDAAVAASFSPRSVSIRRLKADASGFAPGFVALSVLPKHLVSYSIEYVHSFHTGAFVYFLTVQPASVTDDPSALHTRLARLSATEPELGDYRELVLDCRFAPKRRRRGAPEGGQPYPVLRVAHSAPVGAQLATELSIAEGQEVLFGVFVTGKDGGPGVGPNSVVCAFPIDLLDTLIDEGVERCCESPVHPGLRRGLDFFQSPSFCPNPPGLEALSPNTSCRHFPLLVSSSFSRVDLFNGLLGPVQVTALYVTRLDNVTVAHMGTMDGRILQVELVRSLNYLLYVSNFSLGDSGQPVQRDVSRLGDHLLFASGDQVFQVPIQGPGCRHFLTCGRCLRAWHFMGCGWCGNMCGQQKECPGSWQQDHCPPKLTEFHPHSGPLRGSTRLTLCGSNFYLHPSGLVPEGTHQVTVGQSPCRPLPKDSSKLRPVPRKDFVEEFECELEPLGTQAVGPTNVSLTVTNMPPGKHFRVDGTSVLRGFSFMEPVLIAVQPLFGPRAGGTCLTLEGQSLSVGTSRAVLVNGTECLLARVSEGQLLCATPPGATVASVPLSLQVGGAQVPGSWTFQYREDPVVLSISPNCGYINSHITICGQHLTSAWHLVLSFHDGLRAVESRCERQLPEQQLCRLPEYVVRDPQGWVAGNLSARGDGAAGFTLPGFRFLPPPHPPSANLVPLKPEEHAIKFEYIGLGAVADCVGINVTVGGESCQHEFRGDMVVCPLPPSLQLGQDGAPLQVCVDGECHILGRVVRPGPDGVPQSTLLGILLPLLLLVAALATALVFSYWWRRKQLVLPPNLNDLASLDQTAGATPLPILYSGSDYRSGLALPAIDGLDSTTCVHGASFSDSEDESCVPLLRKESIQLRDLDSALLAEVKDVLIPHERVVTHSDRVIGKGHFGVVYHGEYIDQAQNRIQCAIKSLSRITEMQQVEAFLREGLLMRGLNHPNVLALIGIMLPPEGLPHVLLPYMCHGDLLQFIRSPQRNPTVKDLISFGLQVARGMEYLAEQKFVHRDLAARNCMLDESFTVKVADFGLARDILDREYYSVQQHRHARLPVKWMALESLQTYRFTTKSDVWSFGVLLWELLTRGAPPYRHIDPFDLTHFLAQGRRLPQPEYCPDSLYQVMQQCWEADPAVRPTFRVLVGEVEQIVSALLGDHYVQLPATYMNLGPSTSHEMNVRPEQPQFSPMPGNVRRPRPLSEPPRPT

Structure (SMILES): CCOc1ccn(-c2ccc(F)cc2)c(=O)c1C(=O)Nc1ccc(Oc2ccnc(N)c2Cl)c(F)c1 [ASLAN002]
- selectivity between RON and Met (RON): more selective for RON
- inhibition of osteolysis (PyMT-MSP tumor cells; PyMT-MSP tumors, treatment beginning three days after tumor injection, average): 6-10 fold
- PyMT-MSP tumor growth in the bone (PyMT-MSP tumor cells; caliper measurements): trend in decreased growth, but did not reach statistical significance
- bone formation rate per total bone surface [1]: not significant
- mineral apposition rate [1]: not significant
- ERK activity (ERK): no effect
- osteolysis from DU4475 cells [2]: prevented osteolysis
- bone loss after ovary removal [3]: completely prevented bone loss
- phosphorylated AKT (AKT): decrease in phosphorylated AKT

From patent US9907791B2, “Ron inhibitors for use in preventing and treating bone loss” (UNIVERSITY OF UTAH RESEARCH FOUNDATION, priority 2014, dated 2018)
